In the Kinase Knowledgebase extract (Sharma et al. 2016):
Where “and” joins values, the source holds several entries; their conditions need not be identical. Identical values can stand only once.

molecular target: MAPK14 (human) (UniProt Q16539); test: Inhibition of MAPK14 Kinase Activity; conditions: THP.1 monocytic
Sequence (Q16539 whole entry, looked up): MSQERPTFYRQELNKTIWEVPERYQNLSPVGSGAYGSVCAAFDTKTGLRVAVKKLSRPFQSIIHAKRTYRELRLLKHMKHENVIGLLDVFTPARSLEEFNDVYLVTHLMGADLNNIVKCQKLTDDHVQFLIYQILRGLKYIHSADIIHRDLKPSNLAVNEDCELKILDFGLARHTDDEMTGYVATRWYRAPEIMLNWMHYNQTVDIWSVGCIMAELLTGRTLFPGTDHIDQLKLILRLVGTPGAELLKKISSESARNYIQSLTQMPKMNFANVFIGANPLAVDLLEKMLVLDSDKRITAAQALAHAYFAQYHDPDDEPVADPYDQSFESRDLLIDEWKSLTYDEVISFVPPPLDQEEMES

IC50 | SMILES
< 1000 nM | Cc1cc(OCc2ccc(F)cc2F)c(Br)c(=O)n1Cc1ccc(C(=O)N(C)C)cc1
1000 to 25000 nM | Cc1cc(OCc2ccc(F)cc2F)c(Br)c(=O)n1-c1c(F)c(Br)c(O)c(Br)c1F
< 1000 nM | Cc1cc(OCc2ccc(F)cc2F)c(Br)c(=O)n1-c1c(F)cc(N2CCOCC2)cc1F
> 100000 nM | Cc1cc(OCc2ccc(F)cc2F)c(Br)c(=O)n1-c1ccc(C(=O)NO)cc1
< 1000 nM | Cc1cc(OCc2ccc(F)cc2F)c(Br)c(=O)n1-c1ccc(C(=O)NCCN)cc1
1000 to 25000 nM | Cc1cc(OCc2ccc(F)cc2F)c(Br)c(=O)n1-c1ccc(C(N)=O)cc1
< 1000 nM | CNC(=O)c1ccc(C)c(-n2c(C)cc(OCc3ccc(F)cc3F)c(Cl)c2=O)c1
1000 to 25000 nM | Cc1cc(OCc2ccc(F)cc2F)c(Br)c(=O)n1-c1cccc(CN(C)C)c1
1000 to 25000 nM | Cc1cc(OCc2ccc(F)cc2F)c(Br)c(=O)n1-c1cccc(CNS(C)(=O)=O)c1
< 1000 nM | Cc1cc(OCc2ccc(F)cc2F)c(Br)c(=O)n1Cc1cccc(CN2CCOCC2)c1
< 1000 nM | O=Cc1cc(OCc2ccc(F)cc2F)c(Br)c(=O)n1-c1c(F)cccc1F
< 1000 nM and 1000 to 25000 nM | Cc1cc(OCc2ccc(F)cc2F)c(Br)c(=O)n1Cc1ccc(C(=O)NO)cc1
< 1000 nM | CNC(=O)c1ccc(C)c(-n2c(C)cc(OCc3ccc(F)cc3CNC(=O)OC)c(Br)c2=O)c1
< 1000 nM | Cc1cc(OCc2ccc(F)cc2F)c(Br)c(=O)n1CC1CC1
< 1000 nM | Cc1cc(OCc2ccc(F)cc2F)c(Br)c(=O)n1-c1cccc(C(=O)NCCCN)c1
< 1000 nM | Cc1cc(OCc2ccc(F)cc2F)c(Br)c(=O)n1-c1cccc(C(=O)NCCO)c1
< 1000 nM | Cc1cc(OCc2ccc(F)cc2F)c(Cl)c(=O)n1-c1cccc(C(N)=O)c1
1000 to 25000 nM | Cc1cc(OCc2ccc(F)cc2F)c(Cl)c(=O)n1-c1cccc(CO)c1
< 1000 nM | Cc1cc(OCc2ccc(F)cc2F)c(Br)c(=O)n1Cc1cccc(CNC(=O)CO)c1

IC50 | SMILES
< 1000 nM | Cc1cc(OCc2ccc(F)cc2F)c(Br)c(=O)n1Cc1ccc(C(=O)NC(C)C)cc1
< 1000 nM | COc1ccc(C(=O)N(C)C)cc1-n1c(C)cc(OCc2ccc(F)cc2F)c(Br)c1=O
< 1000 nM | COCCNC(=O)c1cccc(-n2c(C)cc(OCc3ccc(F)cc3F)c(Br)c2=O)c1
< 1000 nM | COC(=O)NCc1cccc(Cn2c(C)cc(OCc3ccc(F)cc3F)c(Br)c2=O)c1
1000 to 25000 nM | Cc1cc(OCc2ccc(F)cc2F)c(Br)c(=O)n1Cc1cccc(C(=O)O)c1
1000 to 25000 nM | COCCN(C)C(=O)c1cccc(-n2c(C)cc(OCc3ccc(F)cc3F)c(Br)c2=O)c1
1000 to 25000 nM | Cc1cc(OCc2ccc(F)cc2F)c(Br)c(=O)n1Cc1ccccc1C#N
< 1000 nM | COCCNCc1cc(OCc2ccc(F)cc2F)c(Br)c(=O)n1-c1c(F)cccc1F
< 1000 nM | Cc1cc(OCc2ccc(F)cc2F)c(Br)c(=O)n1-c1ccc(CNC(=O)CO)cc1
< 1000 nM | Cc1cc(OCc2ccc(F)cc2F)c(Br)c(=O)n1Cc1ccc(C(=O)N(C)CCO)cc1
< 1000 nM | Cc1cc(OCc2ccc(F)cc2F)c(Cl)c(=O)n1-c1cc(CO)ccc1Cl
1000 to 25000 nM | CC(=O)OCC(=O)NCc1cccc(-n2c(C)cc(OCc3ccc(F)cc3F)c(Br)c2=O)c1
< 1000 nM | Cc1ccc(C(C)(C)O)cc1-n1c(C)cc(OCc2ccc(F)cc2F)c(Br)c1=O
< 1000 nM | CCOC(=O)c1cccc(-n2c(C)cc(OCc3ccc(F)cc3F)c(Br)c2=O)c1
< 1000 nM | CNC(=O)c1cccc(-n2c(C)cc(OCc3ccc(F)cc3F)c(Br)c2=O)c1
< 1000 nM | CN(C)Cc1cc(OCc2ccc(F)cc2F)c(Br)c(=O)n1-c1c(F)cccc1F
< 1000 nM | Cc1cc(OCc2ccc(F)cc2F)c(Br)c(=O)n1-c1cccc(C(=O)NCCN(C)C)c1
< 1000 nM and 1000 to 25000 nM | CNC(=O)c1ccc(Cn2c(C)cc(OCc3ccc(F)cc3F)c(Br)c2=O)cc1
< 1000 nM | Cc1cc(OCc2ccc(F)cc2F)c(Br)c(=O)n1Cc1cnc(CO)cn1

More lines, now with the values behind:

SMILES | IC50
COC(=O)c1ccc(Cn2ccc(OCc3ccccc3)c(Br)c2=O)cc1 | < 1000 nM
O=c1c(Br)c(OCc2ccccc2)c(Br)cn1Cc1ccccc1 | > 100000 nM
O=c1c(Cl)c(OCc2ccc(F)cc2F)cc(CO)n1-c1c(F)cccc1F | < 1000 nM
N#Cc1ccc(Cn2ccc(OCc3ccccc3)c(Br)c2=O)cc1 | < 1000 nM
Cc1c(C(O)CO)c(OCc2ccc(F)cc2F)c(Br)c(=O)n1-c1c(F)cccc1F (configuration not stated) | 25000 to 100000 nM
O=c1c(Br)c(OCc2ccccc2)ccn1CC1CCCNC1 (configuration not stated) | > 100000 nM
C#Cc1c(OCc2ccccc2)ccn(Cc2cccc(F)c2)c1=O | 1000 to 25000 nM
O=c1c(Cl)c(OCc2ccc(F)cc2F)cc(CO)n1-c1c(F)cc(F)cc1F | < 1000 nM
O=c1cc(OCc2c(Cl)cccc2Cl)ccn1Cc1ccccc1 | > 100000 nM
O=c1c(Br)c(O)ccn1Cc1ccc(O)cc1 | > 100000 nM
O=c1c(Br)c(OCc2ccccc2-c2ccccc2)ccn1Cc1cccc(F)c1 | > 100000 nM
O=C(Nc1ccn(Cc2cccc(F)c2)c(=O)c1Br)c1c(F)cccc1F | 1000 to 25000 nM
Cc1cc(OCc2ccc(F)cc2F)c(Cl)c(=O)n1-c1c(F)cc(N2CCN(C)CC2)cc1F | < 1000 nM
CC(C)(C)c1ccc(Cn2ccc(OCc3ccc(F)cc3)c(Br)c2=O)cc1 | 1000 to 25000 nM
Cc1c(OCc2ccccc2)ccn(Cc2cccc(F)c2)c1=O | 1000 to 25000 nM
O=c1c(Br)c(OCc2ccccc2)ccn1Cc1cccc(F)c1 | < 1000 nM
Cc1cc(OCc2ccc(F)cc2F)c(Br)c(=O)n1-c1c(F)cc(N2CCN(C)CC2)cc1F | < 1000 nM
Cc1c(C=NO)c(OCc2ccc(F)cc2F)c(Br)c(=O)n1-c1c(F)cccc1F | 25000 to 100000 nM
O=c1c(Br)c(OCc2ccccc2)ccn1Cc1ccccc1C(F)(F)F | > 100000 nM
Cc1c(C#N)c(OCc2ccc(F)cc2F)c(Br)c(=O)n1-c1c(F)cccc1F | 25000 to 100000 nM

SMILES | IC50
O=c1c(Br)c(NCc2ccccc2)ccn1Cc1cccc(F)c1 | 1000 to 25000 nM
Cc1c(CO)c(OCc2ccc(F)cc2F)c(Br)c(=O)n1-c1c(F)cccc1F | 1000 to 25000 nM
O=c1c(Br)c(OCc2ccccc2)ccn1Cc1ccc(Cl)cc1 | < 1000 nM
Cc1cc(OCc2ccc(F)cc2F)c(Br)c(=O)n1CCN1CCOCC1 | 25000 to 100000 nM
COc1cccc(COc2ccn(Cc3cccc(F)c3)c(=O)c2Br)c1 | 1000 to 25000 nM
Cc1cc(OCc2cccc(Cl)c2)cc(=O)n1Cc1ccccc1 | > 100000 nM
Cc1ccc(Cn2ccc(OCc3ccccc3)cc2=O)cc1 | 25000 to 100000 nM
O=c1c(Br)c(NCc2ccc(F)cc2F)ccn1Cc1cccc(F)c1 | < 1000 nM
Cc1cc(NCc2ccc(F)cc2F)c(Cl)c(=O)n1Cc1cccc(C#N)c1 | < 1000 nM
O=c1cc(OCc2ccccc2Cl)ccn1Cc1ccccc1 | 25000 to 100000 nM
Cc1cccc(C)c1-n1c(C)cc(OCc2c(F)cc(F)cc2F)c(Br)c1=O | < 1000 nM
Cc1c(Br)c(OCc2ccccc2)c(Br)c(=O)n1Cc1ccccc1 | 25000 to 100000 nM
O=c1c(Br)c(NCc2cccc(F)c2)ccn1Cc1cccc(F)c1 | 1000 to 25000 nM
O=c1c(Br)c(OCc2ccccc2)ccn1Cc1ccc(Br)cc1 | < 1000 nM
O=c1c(Br)c(OCc2ccc(C(F)(F)F)cc2)ccn1Cc1cccc(F)c1 | 1000 to 25000 nM
O=c1c(Br)c(OCc2ccccc2)ccn1Cc1ccccc1F | < 1000 nM
C=CCNc1c(I)c(C)n(-c2c(F)cccc2F)c(=O)c1Br | 1000 to 25000 nM
Cc1cc(NCc2ccc(F)cc2F)c(Cl)c(=O)n1-c1c(F)cccc1F | 1000 to 25000 nM
N#Cc1ccccc1Cn1ccc(OCc2ccccc2)c(Br)c1=O | 1000 to 25000 nM
